PubChem BioAssay AID1259407 (Chemical Carcinogenesis Research Information System (CCRIS), 2018)
Activity calls are given as the source filed them. How the calls were made is not given here.

Tested on: CCRIS mutagenicity, Ames/micronucleus/aberration tests
Experiment: CCRIS mutagenicity studies
[1] = Test System: AMES SALMONELLA TYPHIMURIUM, Strain/Indicator: TA98, Metabolic Activation: NONE, Method: STANDARD PLATE
[2] = Test System: AMES SALMONELLA TYPHIMURIUM, Strain/Indicator: TA100, Metabolic Activation: NONE, Method: STANDARD PLATE
[3] = Test System: AMES SALMONELLA TYPHIMURIUM, Strain/Indicator: TA98, Metabolic Activation: RAT, LIVER, S-9, AROCLOR 1254, Method: STANDARD PLATE

Measured: mutagenic call

C=CCc1[c-]cccc1.C=CCc1[c-]cccc1.[Pt+2].c1ccc(P(c2ccccc2)c2ccccc2)cc1
active: [1] active; positive
inactive: Test System: AMES SALMONELLA TYPHIMURIUM, Strain/Indicator: TA92, Metabolic Activation: NONE, Method: STANDARD PLATE inactive; negative | [2] inactive; negative | Test System: AMES SALMONELLA TYPHIMURIUM, Strain/Indicator: TA2410, Metabolic Activation: NONE, Method: STANDARD PLATE inactive; negative

COc1c(O)c2c(c3cc(C(=O)N4CCc5c4c(O)c(OC)c4[nH]c(C(=O)N6C[C@H]7C[C@@]78C6=CC(=O)c6[nH]cc(C)c68)cc54)[nH]c13)CCN2C(N)=O
active: Test System: CHINESE HAMSTER V-79, Strain/Indicator: V-79/6-THIOGUANINE, Metabolic Activation: NONE active; positive
inactive: [1] inactive; negative | [3] inactive; negative | [2] inactive; negative

ClCCCCl
inactive: Test System: AMES SALMONELLA TYPHIMURIUM, Strain/Indicator: GSTT1, Metabolic Activation: RAT, LIVER, S-9, AROCLOR 1254, Method: STANDARD PLATE inactive; negative | Test System: AMES SALMONELLA TYPHIMURIUM, Strain/Indicator: RSJ100, Metabolic Activation: NONE, Method: STANDARD PLATE inactive; negative | [1] inactive; negative | [3] inactive; negative | [2] inactive; negative | Test System: AMES SALMONELLA TYPHIMURIUM, Strain/Indicator: TA100, Metabolic Activation: RAT, LIVER, S-9, AROCLOR 1254, Method: STANDARD PLATE inactive; negative | Test System: AMES SALMONELLA TYPHIMURIUM, Strain/Indicator: TA104, Metabolic Activation: NONE, Method: STANDARD PLATE inactive; negative | Test System: AMES SALMONELLA TYPHIMURIUM, Strain/Indicator: TA104, Metabolic Activation: RAT, LIVER, S-9, AROCLOR 1254, Method: STANDARD PLATE inactive; negative | Test System: AMES SALMONELLA TYPHIMURIUM, Strain/Indicator: TA1535, Metabolic Activation: NONE, Method: STANDARD PLATE inactive; negative | Test System: AMES SALMONELLA TYPHIMURIUM, Strain/Indicator: TA1535, Metabolic Activation: RAT, LIVER, S-9, AROCLOR 1254, Method: STANDARD PLATE inactive; negative
